Experimental data published in patent publication US12090189B2, “Polypeptide inhibitor of de novo lipogenesis in cancer cells” (University of Florida Research Foundation, Inc., priority 2018, dated 2024).
Ends that are not written are not given here.

Key:
[1] = system: protein levels of ACC1, FAS and ACSS2; test: Immunoblotting of MDA-MB-231-derived cells treated with mTOR inhibitor; assay type: cell-based, human; settings: serum-starved 24 h, 0.1 μM for 5 h; for protein levels of ACC1, FAS and ACSS2: control or S671A-expressing cells
Description: FIGS. 6A to 6H show mutation of DAXX phosphorylation sites disrupts DAXX-SREBP2 interaction, impairs lipogenesis and tumor growth. […] The GFP-wt DAXX was transfected alone in the absence of FLAG-SREBP2 as a control (lane 7). The lysates of transfected cells were subjected to IP with an anti-FLAG antibody. Both DAXX and FLAG-SREBP2 were detected in immunoprecipitates and input lysates. […] The precipitated DNAs were subjected to qPCR with primers specific to promoter regions of the indicated genes. qPCRs for the 3′ UTR of the FASN and ACACA genes serve as negative control. […] ATRX qRT-PCR serves as a control for genes not regulated by SREBPs. […] Cells were serum-starved for 24 h. DMSO or a mTOR inhibitor (0.1 μM final concentration) was added for 5 h before cell lysis. […] RNAs were isolated from cells cultured in serum-free DMEM for 24 h as in FIG. 6D.
For immunoblotting analyses of cell lysates of monolayer cultures, medium was removed from culture plates and 1× Passive Lysis buffer (Promega) was added. The plates were frozen at −80° C. overnight and then thawed at room temperature. The lysates were transferred to a centrifuge tube. To prepare tumor lysates, xenograft tumor tissues were fragmented in the presence of liquid nitrogen, approximately 50 mg of tumor fragment was homogenized in 1 mL of 1× RIPA lysis buffer on ice using a micro-homogenizer. After brief sonication at a low power output for 5 sec on ice, the lysates were cleared by centrifugation at 13,000 rpm for 15 min at 4° C. Protein contents were quantified using a Qubit protein assay kit. Protein extracts from cell culture or tumor lysates were subjected to SDS-PAGE and electro-blotting as above.

[2] = system: MDA-MB-231 and MDA-MB-468 cells; test: Cell internalization of TAMRA-SIM2 by microscopy; assay type: cell-based, human; settings: TAMRA-SIM2 1 μM, 1 hour
Method: FIGS. 18A to 18I show SIM2 peptide blocks lipogenesis. […] MDA-MB-231 and MDA-MB-468 cells were exposed to TAMRA-SIM2 (1 μM) for 1 hour and visualized by microscopy. […] Fluorescence polarization assay was performed in the presence of TAMRA-SIM2 and increased concentrations of SUMO1. FIGS. 18C-18H show SIM2 blocks de novo lipogenesis in MDA-MB-231 control or DAXX OE (FIG. 18C), MDA-MB-468 (FIG. 18D), Hs578T (FIG. 18E), HCT116 (FIG. 18F), 4T1 (FIG. 18G), and CT26.CL25 (FIG. 18H). Serum-starved cells were not treated (control) or exposed to SIM2 (10 μM) and labeled with [^14C] acetate. The levels of labeled lipids were quantified. […] MDA-MB-231 control and DAXX OE cell lines were untreated (control) or treated with SIM2 (10 μM). At 24 h after treatment, RNA was isolated and subject to qRT-PCR. RNA levels were normalized against that of ACTB. The p values shown are based on t-test.

[3] = Tolerability in tumor-bearing mice (body weights); assay type: in vivo; settings: 25 mg/kg i.p. daily weekdays
Method: FIGS. 7A to 7E show the DAXX SIM2 peptide disrupts DAXX-SREBP interaction and suppresses tumor growth in vivo. […] The immunoprecipitates, input and supernatants were analyzed by immunoblotting. […] Mice were dosed i.p. daily weekdays for three weeks with vehicle or SIM2 (25 mg/kg). Longitudinal tumor volumes, mouse body weights, and endpoint tumor weights and images are shown. […] Protein extracts from three representative MDA-MB-231 xenograft tumors in vehicle and SIM2-treated mice were subjected to immunoblotting. HSP60 was detected as a loading control. […] Mice were dosed as in FIG. 7B. Longitudinal tumor volumes, mouse body weights, and endpoint tumor weights and tumor images are shown. […] Shown are a plot of a principal component analysis of lipid molecules detected by LC/MS, a heatmap of top lipid species, and bar graphs of relative abundance of the indicated lipid molecules. […] The p values were calculated based on Student's t-test. *: p<0.05; **: […].
For the in vivo SIM2 treatment study, MDA-MB-231 xenograft tumors were established as above and the mouse mammary tumor cell line 4T1 syngeneic tumors were established by transplanting one million cells in 100 μl of DMEM into mammary fat pads of female BALB/c mice. […] During the treatment, tumor dimensions and mouse body weights were recorded once weekly. […]

Row | Compound | protein levels of ACC1, FAS and ACSS2 [1] | levels of ACC1 and FAS ([1]; cells expressing the S495A mutant) | internalization into cells [2] | tolerability in vivo [3]
1 | COc1ccc(-c2ccc3c(N4CCOC[C@@H]4C)nc(N4CCOC[C@@H]4C)nc3n2)cc1CO [AZD8055] | Neither of these inhibitors had obvious effects | – | – | –
2 | CO[C@H]1C[C@@H]2CC[C@@H](C)[C@@](O)(O2)C(=O)C(=O)N2CCCC[C@H]2C(=O)O[C@H]([C@H](C)C[C@@H]2CC[C@@H](OC(=O)C(C)(CO)CO)[C@H](OC)C2)CC(=O)[C@H](C)/C=C(\C)[C@@H](O)[C@@H](OC)C(=O)[C@H](C)C[C@H](C)/C=C/C=C/C=C/1C [temsirolimus] | Neither of these inhibitors had obvious effects | reduced levels of both ACC1 and FAS | – | –
3 | DPEEIIVLSDSD [SIM2, DPEEIIVLSDSD] | – | – | spontaneously and rapidly internalized into cells | highly tolerated in vivo
